Measured values from patent US4994468A, “Imidazoquinolone derivatives” (Kyowa Hakko Kogyo Co., Ltd., priority 1989, dated 1991).

Experiments:
[1] = tested on: trachea strips of passively sensitized guinea pigs, antigen (EWA) induced contraction; assay: Effects on passive Schultz-Dale reaction (broncho-dilatory effects); type: cell-based, guinea pig (Hartley male); conditions: Cavia porcellus; concentration of 50% relaxation; sensitized guinea pig trachea, antigen EWA 1 μg/ml, cumulative addition, 37° C.
Method: (a) Effects on passive Schultz-Dale reaction (broncho-dilatory effects). Guinea pigs were passively sensitized as follows. Hartley male guinea pigs weighing 350 to 500 g were injected intraperitoneally with rabbit anti-egg albumin (EWA) serum prepared by the method of Eda et al. [Folia pharmacol., Japon 66, 237, (1970)]. After 24 hours, the guinea pigs were stunned and exsanguinated, and then trachea was excised. The zig-zag strips of the […] prepared by the method of Emmerson and Mackay [J. Pharm. Pharmacol., 31, 798, (1979)]. The strips were suspended in Krebs-Henseleit solution at 37° C. under aeration of a mixed gas of 95% oxygen and 5% carbon dioxide, and incubated for one hour. Antigen (EWA) was then introduced in the solution (final concentration; 1 μg/ml), and the contraction was measured by isotonictrasducer (TD-112s, made by Nihon Kohden K.K., Japan) and recorded on a recorder (Type 3066, made by Yokogawa-Hokushin Denki, K.K. Japan). After the contraction curves reached plateau, the compounds were successively added in order to get cumulative concentration-relaxation curves.

[2] = tested on: passive cutaneous anaphylaxis (PCA); assay: Antiallergic effects: 48 hour-homologous passive cutaneous anaphylaxis (PCA) test in rats; type: in vivo, rat (Wistar male); conditions: Rattus norvegicus; minimum effective dosage: suppression rate 50% or higher in at least one of three rats; oral, 1 hour before PCA challenge; read-out: Anti-allergic effect (MED)
Method: Antiallergic effects of compounds were assessed by passive cutaneous anaphylaxis (PCA) test in rats. Wistar male rats weighing 180 to 220 g were used for collection of antiserum and Wistar male rats weighing 120 to 140 g for PCA test.
(i) Preparation of anti EWA serum in rat
Anti-EWA rat serum was prepared by the method of Stotland and Share [Can. J. Physiol. Pharmacol., 52, 1114, (1974)] as follows. That is, 1 mg of EWA, 20 mg of aluminium hydroxide gel and 0.5 ml of mixed vaccine of pertussis, diphtheria and tetanus were mixed, and the mixture was subcutaneously injected in 4 portions into the foot part of the rats. After 14 days, the blood of sensitized rats was collected from carotid artery. The serum was separated by centrifugation from collected blood, and kept at -80° C. Titer of the 48 hour homologous PCA tests of the serum was 1:32.
(ii) Effects on 48 hour-homologous PCA tests in rats
Groups each consisting of three male rats were used, and 0.05 ml of anti-EWA serum diluted to 8 times with a physiological saline, was sensitized passively by giving intradermal injection at two depilated points on the dorsum. After 47 hours, the test compound or its solvent (saline or CMC solution) was orally administrated, and 1 hour thereafter, PCA reaction was induced by intravenous administration of 1% Evan's blue-saline (0.5 ml/100 g) containing 2 mg of […]. After 30 minutes, animals were sacrificed by bleeding and dorsal skin was stripped to determin the extravasated dye at blue-dyed reaction site, by the method of Katayama et al. [Microbiol. Immunol., 22, 89 (1978)]. The blue-dyed spots were scissored out and placed in a test tube containing 1 ml of 1N sodium hydroxide and incubated at 37° C. for 24 hours. 9 ml of a mixture of 0.6N phosphate:acetone (5:13) was added thereto. After shaking, the mixture was centrifuged at 2500 rpm for 10 minutes. A supernatant was separated, and extravasated dye in the supernatant was quantified by measuring absorbance of the supernatant at 620 nm. Prepared calibration curve was used for the quantification. An average of measurements at the two positions was made a value for one animal, and suppression rate of the one animal was calculated by following equation: [formula]

[3] = tested on: experimental asthma in passively sensitized guinea pigs; assay: Effects on experimental asthma; type: in vivo, guinea pig (Hartley male); conditions: 50 mg/kg orally, one hour before aerosol antigen 1.5% EWA; mean + SEM of 5 or 10 animals; control 254 ± 18
Method: (c) Effects on experimental asthma Guinea pigs were passively sensitized as follows. Hartley male guinea pigs weighing 350 to 500 g were intraperitoneally injected with 1 ml of rabbit EWA serum prepared by the method of Eda et al. [Folia pharmacol., Japon, 66, 237 (1970)]. The animals were treated with intraperitoneal injection of diphenhydramine (20 mg/kg) and propranolol (5 mg/kg), 30 minutes before administration of test compounds. 17 hours after the sensitization, the test compounds (50 mg/kg) were orally administrated to sensitized animals. After one hour from the administration of the test compounds, the guinea pigs were placed in plastic observation box and were exposed to an aerosal antigen of 1.5% EWA. The time until the onset of respiratory […] symptom [collapse time (second)] was measured as a result of experimental asthma.

[4] = Acute toxicity; conditions: mouse, in vivo; po, mortality for seven days, male dd-mice
Method: The compounds were orally administrated (po: 300 mg/kg) to male dd-mice weighing 20 to 25 g. LD50 was determined by observing the mortality for seven days after the administration.

CCCCn1c(=O)c2ncn(C)c2c2ccccc21 [Compound 1, 5-n-Butyl-1-methyl-1H,5H-imidazo[4,5-c]quinolin-4-one]
IC50 [1]: 0.0034 µM
minimal effective dose [2]: < 10 mg/kg
Experimental asthma (collapse time) [3]: 517 ± 37 s
LD50 at 168 h [4]: > 300 mg/kg

Cn1cnc2c(=O)n(Cc3ccco3)c3ccccc3c21 [Compound 3, 5-Furfuryl-1-methyl-1H,5H-imidazo[4,5-c]quinolin-4-one]
IC50 [1]: > 20 µM
minimal effective dose [2]: > 100 mg/kg
LD50 at 168 h [4]: > 300 mg/kg

Cn1cnc2c(=O)n(C)c3ccccc3c21 [Compound 4, 1,5-Dimethyl-1H,5H-imidazo[4,5-c]quinolin-4-one]
IC50 [1]: > 20 µM
minimal effective dose [2]: > 10 mg/kg
LD50 at 168 h [4]: > 200 mg/kg

CCn1c(=O)c2ncn(C)c2c2ccccc21 [Compound 5, 5-Ethyl-1-methyl-1H,5H-imidazo[4,5-c]quinolin-4-one]
IC50 [1]: > 20 µM
minimal effective dose [2]: < 10 mg/kg
Experimental asthma (collapse time) [3]: 519 ± 78 s
LD50 at 168 h [4]: > 100 mg/kg

CCCn1c(=O)c2ncn(C)c2c2ccccc21 [Compound 6, 1-Methyl-5-n-propyl-1H,5H-imidazo[4,5-c]quinolin-4-one]
IC50 [1]: < 20 µM
minimal effective dose [2]: < 10 mg/kg
Experimental asthma (collapse time) [3]: 600 ± 0 s
LD50 at 168 h [4]: > 200 mg/kg

CCCCn1c(=O)c2ncn(Cc3ccccc3)c2c2ccccc21 [Compound 7, 1-Benzyl-5-n-butyl-1H,5H-imidazo[4,5-c]quinolin-4-one]
IC50 [1]: > 20 µM
minimal effective dose [2]: > 100 mg/kg
LD50 at 168 h [4]: > 300 mg/kg

CCCCn1c(=O)c2nc[nH]c2c2ccccc21 [Compound 8, 5-n-Butyl-1H,5H-imidazo[4,5-c]quinolin-4-one]
IC50 [1]: > 20 µM
minimal effective dose [2]: > 100 mg/kg
LD50 at 168 h [4]: > 300 mg/kg

Cn1cnc2c(=O)n(CC(=O)O)c3ccccc3c21 [Compound 9, 5-Carboxymethyl-1-methyl-1H,5H-imidazo[4,5-c]quinolin-4-one]
IC50 [1]: > 20 µM
minimal effective dose [2]: > 100 mg/kg
Experimental asthma (collapse time) [3]: 532 ± 31 s
LD50 at 168 h [4]: > 300 mg/kg

CCCCn1c(=O)c2ncn(CC)c2c2ccccc21.Cl [Compound 16W, 5-n-Butyl-1-ethyl-1H,5H-imidazo[4,5-c]quinolin-4-one hydrochloride]
IC50 [1]: 4.1 µM
minimal effective dose [2]: > 100 mg/kg
Experimental asthma (collapse time) [3]: 422 ± 43 s
LD50 at 168 h [4]: > 300 mg/kg

CCCCn1c(=O)c2ncn(CCC)c2c2ccccc21.Cl [Compound 17W, 5-n-Butyl-1-n-propyl-1H,5H-imidazo[4,5-c]quinolin-4-one hydrochloride]
IC50 [1]: 2.4 µM
minimal effective dose [2]: > 100 mg/kg
Experimental asthma (collapse time) [3]: 484 ± 31 s
LD50 at 168 h [4]: > 300 mg/kg

CCCCn1c(=O)c2ncn(C(C)C)c2c2ccccc21.Cl [Compound 18W, 5-n-Butyl-1-isopropyl-1H,5H-imidazo[4,5-c]quinolin-4-one hydrochloride]
IC50 [1]: 1.5 µM
minimal effective dose [2]: > 100 mg/kg
Experimental asthma (collapse time) [3]: 425 ± 50 s
LD50 at 168 h [4]: > 300 mg/kg

CCCCn1cnc2c(=O)n(CCCC)c3ccccc3c21.Cl [Compound 19W, 1,5-Di-n-butyl-1H,5H-imidazo[4,5-c]quinolin-4-one hydrochloride]
IC50 [1]: 6.4 µM
minimal effective dose [2]: > 100 mg/kg
Experimental asthma (collapse time) [3]: 503 ± 44 s
LD50 at 168 h [4]: > 300 mg/kg

CCCCn1c(=O)c2ncn(C)c2c2ccc(Cl)cc21.Cl [Compound 24W, 5-n-Butyl-7-chloro-1-methyl-1H,5H-imidazo[4,5-c]quinolin-4-one hydrochloride]
IC50 [1]: 0.9 µM
minimal effective dose [2]: > 100 mg/kg
LD50 at 168 h [4]: > 300 mg/kg

CCCCn1c(=O)c2ncn(C)c2c2cc(C)ccc21 [Compound 26, 5-n-Butyl-1,8-dimethyl-1H,5H-imidazo[4,5-c]quinolin-4-one]
IC50 [1]: 9.8 µM
minimal effective dose [2]: 100 mg/kg
LD50 at 168 h [4]: > 300 mg/kg

CCCCn1c(=O)c2ncn(C)c2c2c(C)cccc21.Cl [Compound 27W, 5-n-Butyl-1,9-dimethyl-1H,5H-imidazo[4,5-c]quinolin-4-one hydrochloride]
IC50 [1]: > 20 µM
minimal effective dose [2]: 100 mg/kg
LD50 at 168 h [4]: > 300 mg/kg

CCCCn1c(=O)c2nc(S)n(C)c2c2ccccc21 [Compound 31, 5-n-Butyl-1-methyl-2-mercapto-1H,5H-imidazo[4,5-c] quinolin-4-one]
IC50 [1]: 9.6 µM
minimal effective dose [2]: > 100 mg/kg
Experimental asthma (collapse time) [3]: 284 ± 48 s
LD50 at 168 h [4]: > 300 mg/kg

CCCCn1c(=O)c2nnn(C)c2c2ccccc21 [Compound 32, 5-n-Butyl-1-methyl-1H,5H-triazolo[4,5-c]quinolin-4-one]
IC50 [1]: 1.6 µM
minimal effective dose [2]: > 100 mg/kg
LD50 at 168 h [4]: > 300 mg/kg

CCCn1c(=O)[nH]c(=O)c2[nH]cnc21 [Enprofylline, reference compound]
IC50 [1]: 10 µM
minimal effective dose [2]: ≤ 100 mg/kg

CC(C)C(=O)c1c(C(C)C)nn2ccccc12 [KC 404, reference compound]
IC50 [1]: 0.86 µM
minimal effective dose [2]: > 100 mg/kg

Cn1c(=O)c2[nH]cnc2n(C)c1=O [Theophylline, reference compound]
Experimental asthma (collapse time) [3]: 414 ± 47 s
